Source: article PMC5855594, “Poly-N-Acetyllactosamine Neo-Glycoproteins as Nanomolar Ligands of Human Galectin-3: Binding Kinetics and Modeling” (International Journal of Molecular Sciences, 2018)
Like-named read-outs stand apart in the source and are kept apart here. Blank lines part the entries; values can stand above or below the compound they belong to.

What was measured:
human galectin-3 (Gal-3) [1] = target: T1, human galectin-3 (Gal-3) (Homo sapiens, UniProt P17931); assay: Competitive ELISA: inhibition of His-tagged Gal-3 binding to immobilized asialofetuin (ASF); conditions: for increase of inhibitory potency compared to lactose (times): competitive ELISA; for IC50: read-out: IC50 Glycan
T1 construct: made in house; host or cells: E. coli Rosetta (DE3) pLysS
T1 sequence (P17931 whole entry): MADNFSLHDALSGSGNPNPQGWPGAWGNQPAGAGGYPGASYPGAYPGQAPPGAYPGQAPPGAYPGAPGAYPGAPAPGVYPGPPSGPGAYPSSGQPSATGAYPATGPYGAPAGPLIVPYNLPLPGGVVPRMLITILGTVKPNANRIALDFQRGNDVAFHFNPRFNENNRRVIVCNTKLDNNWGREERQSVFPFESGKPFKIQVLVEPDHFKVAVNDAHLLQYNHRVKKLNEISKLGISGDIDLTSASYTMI
Description: To assess the inhibitory potential of glycans 1–8 and the respective neo-glycoproteins 9–16 towards Gal-3, their capacity to inhibit the binding of Gal-3 to immobilized asialofetuin (ASF) was determined by competitive ELISA inhibition analyses (Figure 2b). ASF is a multivalent glycoprotein presenting three triantennary N-glycans terminated with LacNAc, which is reported to interact with Gal-3. Here, Gal-3 was incubated with increasing concentrations of the glycans or neo-glycoproteins as competing ligands and the inhibition of Gal-3 binding to immobilized ASF was quantified by colorimetric immunodetection using anti-His antibody conjugated to HRP. […] The respective inhibition constants (IC50) were calculated from the non-linear regression of the sigmoidal inhibition curves and they are listed in Table 1.
In the competitive ELISA design, the F16 Maxisorp NUNC-Immuno Modules (Thermo Scientific, Roskilde, Denmark) were coated overnight with ASF (Sigma Aldrich, Steinheim, Germany; 0.1 µM in PBS, 50 µL, 5 pmol per well) and blocked with BSA (2% w/v) diluted in PBS (1 h, room temperature). […] Detection of bound Gal-3 and data analysis were performed as described above.

Gal-3-AVI [2] = target: T2, Gal-3-AVI (Homo sapiens, UniProt P17931); assay: Competitive ELISA with Gal-3-AVI construct; assay type: binding; conditions: read-out: IC50 glycan, competitive ELISA
T2 construct: made in house; host or cells: E. coli BL21 (λDE3), co-expressed with BirA
T2 sequence (P17931 whole entry): as above

human galectin-3 (Gal-3) [3] = target: T1, human galectin-3 (Gal-3); conditions: monovalent glycan; inhibition of Gal-3 binding to immobilized ASF; cited from earlier work
human galectin-3 (Gal-3) [4] = target: T1, human galectin-3 (Gal-3); assay: Direct ELISA: binding of soluble His-tagged Gal-3 to immobilized neo-glycoproteins or ASF
Source text: To determine the binding affinities between Gal-3 and neo-glycoproteins 9–16, the binding of soluble Gal-3 to the neo-glycoproteins immobilized in microplate wells was quantified by colorimetric immunodetection using anti-His antibody conjugated to horseradish peroxidase (HRP) (Figure 2a). Gal-3 bound neo-glycoproteins in a concentration-dependent manner and the interaction was exclusively conferred by glycan moieties since no binding of Gal-3 to the glycan-free BSA was detected. Apparent dissociation constants (Kd) of the Gal-3/neo-glycoprotein complexes were calculated from a non-linear regression of binding curves.
The affinity of Gal-3 for neo-glycoproteins 9–16 was determined using ELISA as reported previously. For the immobilization of the respective neo-glycoproteins or non-modified BSA (negative control), we used F16 Maxisorp NUNC-Immuno Modules (Thermo Scientific, Roskilde, Denmark). Per well, an amount of 5 pmol was incubated overnight at a working concentration of 0.1 µM (PBS). Then the wells were blocked with bovine serum albumin (2% w/v) diluted in PBS (1 h, room temperature). […] The binding signal of bound galectin was measured with a spectrophotometer (Spectra Max Plus, Molecular Devices, Sunnyvale, CA, USA) at an optical density of 450 nm. Obtained data were analyzed using SigmaPlot 10 software (Systat Software GmbH, Erkrath, Germany).

Gal-3-AVI [5] = target: T2, Gal-3-AVI; assay: SPR with biotinylated Gal-3-AVI captured on neutravidin chip, neo-glycoproteins as analytes; assay type: binding
Description: For SPR analysis, the biotinylated Gal-3-AVI was captured on a neutravidin-coated sensor chip, and the binding of serially diluted neo-glycoproteins 9–16 to immobilized Gal-3-AVI was analyzed. Three coupling concentrations of Gal-3-AVI were tested, so that the effect of mass transfer and the non-specific binding were minimized. As a result, the coupling level of 250 relative units (RU) along with the flow rate of 30 µL/min gave the optimum conditions and these parameters were used for the subsequent experiments.
Figure 4 SPR kinetic binding analysis of the interactions between neo-glycoproteins 9–16 and immobilized Gal-3-AVI. The neo-glycoproteins at indicated concentrations were injected in parallel over the neutravidin-coated sensor chip coated with the biotinylated Gal-3-AVI at a flow rate of 30 μL/min. The kinetic data were globally fitted by using a 1:1 Langmuir binding model. The fitted curves are superimposed as thin black lines on top of the sensograms. BSA, bovine serum albumin; rel., relative.
SPR measurements were performed at 25 °C using a set of sensor chips (GLC, NLC, HTE) mounted on a ProteOn XPR36 Protein Interaction Array System (Bio-Rad, Hercules, CA, USA ) as described previously. Briefly, Gal-3-AVI protein was diluted to a final concentration of 5 µg·mL^−1 in PBS and captured on a neutravidin-coated NLC sensor chip (Bio-Rad) at a flow rate of 30 µL·min^−1. Neo-glycoproteins 9–16, used here as analytes, were serially diluted in the running buffer (PBS supplemented with 0.005% Tween 20), and injected in parallel over the immobilized Gal-3-AVI at a flow rate of 30 µL·min^−1. The Gal-3-AVI surface was regenerated by a washing step with 50 mM HCl for 60 s. For the reversed experimental setup, the neo-glycoproteins 9–16 were immobilized on the GLC sensor chip by amine coupling chemistry and serial dilutions of Gal-3 were injected over the sensor surface. […] The equilibrium dissociation constant, KD, was determined as a ratio between the dissociation and association rate constants: KD=kd/ka

Gal-3-AVI [6] = target: T2, Gal-3-AVI; assay: Direct ELISA with Gal-3-AVI construct; assay type: binding; conditions: read-out: Kd app, direct ELISA
Source text: To overcome the difficulties with Gal-3 immobilization, we prepared a biotinylated version of Gal-3 through in vivo biotinylation of an AviTag peptide that was genetically fused to the N-terminus of Gal-3 (Gal-3-AVI) (Figure 3). The AviTag is a specific 15-amino acid peptide sequence ([…]) that directs a highly targeted enzymatic conjugation of a single biotin molecule to the specific lysine (K) residue within the AviTag sequence using biotin ligase (BirA). In contrast to chemical biotinylation, which usually generates heterogeneous products with impaired function, the co-translational biotinylation of the AviTag peptide is site specific and provides a highly homogeneous protein preparation. Moreover, the N-terminal localization of the AviTag peptide provides a favorable orientation of Gal-3-AVI on a streptavidin-coated surface, leaving the C-terminal carbohydrate-binding domain of Gal-3 freely accessible for binding interactions.
Table S1. Comparison of binding affinities of His6-tag Gal-3 and Gal-3-AVI in ELISA assays Kd app [µM], direct ELISA IC50 glycan [µM], competitive ELISA […]
Figure S7. SPR kinetic binding analysis of the interactions between asialofetuin (ASF) and immobilized Gal-3-AVI. ASF was injected in parallel over the neutravidin-coated sensor chip coated with the biotinylated Gal-3-AVI at a flow rate of 30 µl/min. […]

[7] = immobilized Gal-3-AVI, 1:1 Langmuir model, 25 °C

increase of inhibitory potency compared to lactose (times) (human galectin-3 (Gal-3) [1]): up to 4
IC50 (human galectin-3 (Gal-3) [1]): 42 ± 2 µM
IC50 (Gal-3-AVI [2]): 43 ± 4 µM
Compound: CC(=O)N[C@@H]1[C@@H](O)[C@H](O[C@@H]2O[C@H](CO)[C@H](O)[C@H](O)[C@H]2NC(C)=O)[C@@H](CO)O[C@H]1NC(=S)NCCNC(=O)OC(C)(C)C [glycan 1, LacdiNAc]

Compound: CC(=O)N[C@@H]1[C@@H](O)[C@H](O[C@@H]2O[C@H](CO)[C@H](O)[C@H](O[C@@H]3O[C@H](CO)[C@@H](O[C@@H]4O[C@H](CO)[C@H](O)[C@H](O[C@@H]5O[C@H](CO)[C@@H](O[C@@H]6O[C@H](CO)[C@H](O)[C@H](O)[C@H]6NC(C)=O)[C@H](O)[C@H]5NC(C)=O)[C@H]4O)[C@H](O)[C@H]3NC(C)=O)[C@H]2O)[C@@H](CO)O[C@H]1NC(=S)NCCNC(=O)OC(C)(C)C [glycan 5, LacdiNAc-LacNAc-LacNAc]
IC50 (human galectin-3 (Gal-3) [3]): 6.2 ± 0.02 µM

Compound: CC(=O)N[C@@H]1[C@@H](O)[C@H](O[C@@H]2O[C@H](CO)[C@H](O)[C@H](O[C@@H]3O[C@H](CO)[C@@H](O[C@@H]4O[C@H](CO)[C@H](O)[C@H](O)[C@H]4NC(C)=O)[C@H](O)[C@H]3NC(C)=O)[C@H]2O)[C@@H](CO)O[C@H]1NC(=S)NCCNC(=O)OC(C)(C)C [glycan 3, LacdiNAc-LacNAc]
IC50 (human galectin-3 (Gal-3) [3]): 7 ± 1 µM

Compound: CC(=O)N[C@@H]1[C@@H](O)[C@H](O[C@@H]2O[C@H](CO)[C@H](O)[C@H](O[C@@H]3O[C@H](CO)[C@@H](O[C@@H]4O[C@H](CO)[C@H](O)[C@H](O)[C@H]4O)[C@H](O)[C@H]3NC(C)=O)[C@H]2O)[C@@H](CO)O[C@H]1NC(=S)NCCNC(=O)OC(C)(C)C [glycan 4, LacNAc-LacNAc]
IC50 (human galectin-3 (Gal-3) [3]): 13 ± 3 µM

increase of inhibitory potency compared to lactose (times) (human galectin-3 (Gal-3) [1]): up to 4
IC50 (human galectin-3 (Gal-3) [1]): 36 ± 1 µM
Compound: CC(=O)N[C@@H]1[C@@H](O)[C@H](O[C@@H]2O[C@H](CO)[C@H](O)[C@H](O)[C@H]2O)[C@@H](CO)O[C@H]1NC(=S)NCCNC(=O)OC(C)(C)C [glycan 2]

Compound: Asialofetuin [ASF]
Kd (human galectin-3 (Gal-3) [4]; His6-tag Gal-3, read-out: Kd app, direct ELISA): 5 ± 1 µM
ka (Gal-3-AVI [5]; [7]): (4.8 ± 1.9) × 10^4 M^−1·s^−1
kd (Gal-3-AVI [5]; [7]): (4.0 ± 1.7) × 10^−4 s^−1
Kd (Gal-3-AVI [6]): 4.8 ± 0.2 µM

Compound: CC(=O)N[C@@H]1[C@@H](O)[C@H](O[C@@H]2O[C@H](CO)[C@H](O)[C@H](O[C@@H]3O[C@H](CO)[C@@H](O[C@@H]4O[C@H](CO)[C@H](O)[C@H](O[C@@H]5O[C@H](CO)[C@@H](O[C@@H]6O[C@H](CO)[C@H](O)[C@H](O[C@H]7O[C@H](CO)[C@H](O)[C@H](O)[C@H]7O)[C@H]6O)[C@H](O)[C@H]5NC(C)=O)[C@H]4O)[C@H](O)[C@H]3NC(C)=O)[C@H]2O)[C@@H](CO)O[C@H]1NC(=S)NCCNC(=O)OC(C)(C)C [glycan 8, Galili-LacNAc-LacNAc]
IC50 (human galectin-3 (Gal-3) [3]): 8.4 ± 0.1 µM

Compound: CC(=O)N[C@@H]1[C@@H](O)[C@H](O[C@@H]2O[C@H](CO)[C@H](O)[C@H](O[C@@H]3O[C@H](CO)[C@@H](O[C@@H]4O[C@H](CO)[C@H](O)[C@H](O[C@@H]5O[C@H](CO)[C@@H](O[C@@H]6O[C@H](CO)[C@H](O)[C@H](O)[C@H]6O)[C@H](O)[C@H]5NC(C)=O)[C@H]4O)[C@H](O)[C@H]3NC(C)=O)[C@H]2O)[C@@H](CO)O[C@H]1NC(=S)NCCNC(=O)OC(C)(C)C [glycan 6, LacNAc-LacNAc-LacNAc]
IC50 (human galectin-3 (Gal-3) [3]): 20.1 ± 0.1 µM

Compound: CC(=O)N[C@@H]1[C@@H](O)[C@H](O[C@@H]2O[C@H](CO)[C@H](O)[C@H](O[C@@H]3O[C@H](CO)[C@@H](O[C@@H]4O[C@H](CO)[C@H](O)[C@H](O[C@@H]5O[C@H](CO)[C@@H](O)[C@H](O[C@@H]6O[C@H](CO)[C@H](O)[C@H](O)[C@H]6O)[C@H]5NC(C)=O)[C@H]4O)[C@H](O)[C@H]3NC(C)=O)[C@H]2O)[C@@H](CO)O[C@H]1NC(=S)NCCNC(=O)OC(C)(C)C [glycan 7, LacNAc type 1-LacNAc-LacNAc]
IC50 (human galectin-3 (Gal-3) [3]): 12.5 ± 0.1 µM

Compound: bovine serum albumin [BSA]
binding of Gal-3 in direct ELISA (human galectin-3 (Gal-3) [4]; negative control, immobilized): no binding
SPR response / binding to immobilized Gal-3-AVI (Gal-3-AVI [5]; nanomolar concentrations): no binding
